Test results reported in PubChem BioAssay AID328 (DTP/NCI, 2004).
Several values for one entry are separate records, joined by “and”; a condition that tells them apart may be missing. Equal values may be shown once. Inconclusive results and toxic doses are left out. The calls were made as follows: active = survival T/C of 150% or more; inactive = T/C below 125% in these data.

Tested on: BDF1 mice, P388 leukemia ip, median survival T/C
Assay: NCI In Vivo Anticancer Drug Screen. Data for tumor model P388 Leukemia (intraperitoneal) in B6D2F1 (BDF1) mice
Settings: endpoint: median survival time, higher = longer survival
How it was run: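 Mice carrying the transplantable tumour receive compound or vehicle. Survival is followed in each arm, and the treated measure is divided by the vehicle measure.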

[1] = dose: 50.0 mg/kg/injection, schedule: Q01DX009 (ip), vehicle: saline with Tween-80
[2] = dose: 100.0 mg/kg/injection, schedule: Q01DX009 (ip), vehicle: saline with Tween-80
[3] = dose: 200.0 mg/kg/injection, schedule: Q01DX009 (ip), vehicle: saline with Tween-80
[4] = dose: 400.0 mg/kg/injection, schedule: Q01DX009 (ip), vehicle: saline with Tween-80
[5] = dose: 100.0 mg/kg/injection, schedule: Q04DX003 (ip), vehicle: saline with Tween-80
[6] = dose: 200.0 mg/kg/injection, schedule: Q04DX003 (ip), vehicle: saline with Tween-80
[7] = dose: 400.0 mg/kg/injection, schedule: Q04DX003 (ip), vehicle: saline with Tween-80
[8] = dose: 12.5 mg/kg/injection, schedule: Q01DX009 (ip), vehicle: saline with Tween-80
[9] = dose: 12.5 mg/kg/injection, schedule: Q04DX003 (ip), vehicle: saline with Tween-80
[10] = dose: 100.0 mg/kg/injection, schedule: Q04DX003 (ip), vehicle: saline
[11] = dose: 200.0 mg/kg/injection, schedule: Q04DX003 (ip), vehicle: saline

Measured: T/C

CO[C@@H]1[C@@H](OC2OC(C)C(OC3CC(C)(O)C(OC(=O)CC(C)C)C(C)O3)C(N(C)C)C2O)[C@@H](CC=O)C[C@@H](C)C(=O)/C=C/C2O[C@H]2C[C@@H](C)OC(=O)C[C@H]1OC(C)=O (stereo partly specified)
inactive: dose: 50.0 mg/kg/injection, schedule: Q#A X020 (ip), vehicle: water 109 % of control | dose: 100.0 mg/kg/injection, schedule: Q01DX001 (ip), vehicle: water 110 % of control | dose: 100.0 mg/kg/injection, schedule: Q01DX010 (ip), vehicle: water 118 % of control | dose: 100.0 mg/kg/injection, schedule: Q#A X020 (ip), vehicle: water 118 % of control | dose: 150.0 mg/kg/injection, schedule: Q#A X020 (ip), vehicle: water 118 % of control | dose: 200.0 mg/kg/injection, schedule: Q01DX001 (ip), vehicle: water 100 % of control | dose: 200.0 mg/kg/injection, schedule: Q01DX010 (ip), vehicle: water 109 % of control | dose: 200.0 mg/kg/injection, schedule: Q#A X020 (ip), vehicle: water 118 % of control | dose: 300.0 mg/kg/injection, schedule: Q01DX010 (ip), vehicle: water 118 % of control | dose: 400.0 mg/kg/injection, schedule: Q01DX001 (ip), vehicle: water 90 % of control | dose: 600.0 mg/kg/injection, schedule: Q01DX001 (ip), vehicle: water 100 % of control | dose: 1000.0 mg/kg/injection, schedule: Q01DX010 (oral), vehicle: water 86 % of control | dose: 1500.0 mg/kg/injection, schedule: Q01DX010 (oral), vehicle: water 100 % of control

C[Si](C)(C)O/C=C1/CCOC1=O
inactive: [1] 102 % of control | [2] 110 % of control | [3] 119 % of control | [4] 117 % of control

Nc1ccc(OCc2ccc(S(=O)(=O)F)c(Cl)c2)c(Cl)c1
inactive: dose: 100.0 mg/kg/injection, schedule: Q01DX001 (ip), vehicle: saline 103 % of control | dose: 200.0 mg/kg/injection, schedule: Q01DX001 (ip), vehicle: saline 100 % of control | dose: 400.0 mg/kg/injection, schedule: Q01DX001 (ip), vehicle: saline 92 % of control

NN(C(=O)c1ccccc1)C1CCCCC1
inactive: dose: 25.0 mg/kg/injection, schedule: Q01DX009 (ip), vehicle: alcohol 91 % of control | dose: 50.0 mg/kg/injection, schedule: Q01DX009 (ip), vehicle: alcohol 100 % of control | dose: 75.0 mg/kg/injection, schedule: Q04DX003 (ip), vehicle: Klucel (hydroxypropylcellulose) (HPC) 110 % of control | dose: 115.0 mg/kg/injection, schedule: Q04DX003 (ip), vehicle: Klucel (hydroxypropylcellulose) (HPC) 120 % of control | dose: 170.0 mg/kg/injection, schedule: Q04DX003 (ip), vehicle: Klucel (hydroxypropylcellulose) (HPC) 100 % of control | dose: 255.0 mg/kg/injection, schedule: Q04DX003 (ip), vehicle: Klucel (hydroxypropylcellulose) (HPC) 110 % of control | dose: 385.0 mg/kg/injection, schedule: Q04DX003 (ip), vehicle: Klucel (hydroxypropylcellulose) (HPC) 100 % of control

COc1ccc(N=C/C=C/c2ccccc2)cc1
inactive: [5] 104 % of control | [6] 100 % of control | [7] 109 % of control

COc1cccc(CCNC(=O)CC#N)c1OC
inactive: [1] 105 % of control | [2] 105 % of control | [5] 100 % of control | [3] 95 % of control | [6] 100 % of control | [7] 100 % of control

C=CC[n+]1ccccc1C(c1ccccc1)c1ccccc1
inactive: dose: 6.25 mg/kg/injection, schedule: Q01DX009 (ip), vehicle: saline with Tween-80 116 % of control | [8] 120 % of control | [9] 91 % of control

CC1=COC2CCCCC2O1 (stereo unspecified) (tested in a mixture with another compound)
inactive: dose: 100.0 mg/kg/injection, schedule: Q01DX009 (ip), vehicle: acetone 104 % of control | dose: 200.0 mg/kg/injection, schedule: Q01DX009 (ip), vehicle: acetone 96 % of control | dose: 400.0 mg/kg/injection, schedule: Q01DX009 (ip), vehicle: acetone 96 % of control

c1ccc(C(NC2CC3CCC2C3)c2ccccc2)cc1 (stereo unspecified)
inactive: dose: 50.0 mg/kg/injection, schedule: Q04DX003 (ip), vehicle: saline 108 % of control | [10] 108 % of control | [11] 108 % of control

CCOC(=O)C(N)C[S][Sn]([CH3])([CH3])[Cl] (stereo unspecified)
inactive: dose: 6.25 mg/kg/injection, schedule: Q01DX009 (ip), vehicle: saline 122 % of control | dose: 12.5 mg/kg/injection, schedule: Q01DX009 (ip), vehicle: saline 124 % of control

O=C(NCCBr)Nc1ccccc1C(F)(F)F
inactive: dose: 100.0 mg/kg/injection, schedule: Q04DX003 (ip), vehicle: Klucel (hydroxypropylcellulose) (HPC) 95 % of control | dose: 200.0 mg/kg/injection, schedule: Q04DX003 (ip), vehicle: Klucel (hydroxypropylcellulose) (HPC) 109 % of control | dose: 400.0 mg/kg/injection, schedule: Q04DX003 (ip), vehicle: Klucel (hydroxypropylcellulose) (HPC) 109 % of control

O=C(CCl)Nc1ccc([As](=O)(O)O)cc1
inactive: dose: 12.5 mg/kg/injection, schedule: Q01DX009 (ip), vehicle: Klucel (hydroxypropylcellulose) (HPC) 100 % of control | dose: 25.0 mg/kg/injection, schedule: Q01DX009 (ip), vehicle: Klucel (hydroxypropylcellulose) (HPC) 100 % of control | dose: 50.0 mg/kg/injection, schedule: Q01DX009 (ip), vehicle: Klucel (hydroxypropylcellulose) (HPC) 90 % of control

CC[C@@H]1CN(C)[C@H]2Cc3c([nH]c4ccccc34)C(=O)C[C@H]1C2C(=O)OC (stereo partly specified)
inactive: dose: 100.0 mg/kg/injection, schedule: Q01DX009 (ip), vehicle: saline sonified 90 % of control | dose: 100.0 mg/kg/injection, schedule: Q04DX003 (ip), vehicle: saline sonified 100 % of control | dose: 200.0 mg/kg/injection, schedule: Q01DX009 (ip), vehicle: saline sonified 115 % of control | dose: 200.0 mg/kg/injection, schedule: Q04DX003 (ip), vehicle: saline sonified 100 % of control | dose: 400.0 mg/kg/injection, schedule: Q01DX009 (ip), vehicle: saline sonified 100 % of control | dose: 400.0 mg/kg/injection, schedule: Q04DX003 (ip), vehicle: saline sonified 90 % of control

CN(C)C=Nc1ccccc1
inactive: dose: 100.0 mg/kg/injection, schedule: Q01DX009 (ip), vehicle: Klucel (hydroxypropylcellulose) (HPC) 113 % of control | dose: 200.0 mg/kg/injection, schedule: Q01DX009 (ip), vehicle: Klucel (hydroxypropylcellulose) (HPC) 95 % of control | dose: 400.0 mg/kg/injection, schedule: Q01DX009 (ip), vehicle: Klucel (hydroxypropylcellulose) (HPC) 109 % of control

O=C1c2cc(Cl)ccc2-c2c(Cl)cc(Cl)cc21
inactive: [5] 91 % of control | [3] 87 % of control | [6] 100 % of control | [7] 91 % of control

COc1cc2ccc3c4cc5c(cc4cnc3c2cc1OC)OCO5
inactive: [8] 109 % of control and 119 % of control | [9] 102 % of control | dose: 25.0 mg/kg/injection, schedule: Q01DX009 (ip), vehicle: saline with Tween-80 106 % of control | dose: 25.0 mg/kg/injection, schedule: Q04DX003 (ip), vehicle: saline with Tween-80 100 % of control | [1] 106 % of control | dose: 50.0 mg/kg/injection, schedule: Q04DX003 (ip), vehicle: saline with Tween-80 92 % of control | [2] 99 % of control and 100 % of control and 114 % of control | [3] 107 % of control and 111 % of control | [4] 101 % of control and 124 % of control | [7] 92 % of control

CCSCCSCC
inactive: [2] 107 % of control | [10] 120 % of control | [3] 103 % of control | [11] 115 % of control | dose: 400.0 mg/kg/injection, schedule: Q04DX003 (ip), vehicle: saline 120 % of control
